± gives the expanded uncertainty stated by the source.
Test: xn = mol fraction of the nth substance listed
Conditions: 101 kPa, Liquid, Capillary tube (Ostwald / Ubbelohde) method

CCCCC/C=C\C/C=C\CCCCCCCC(=O)OCC(COC(=O)CCCCCCC/C=C\C/C=C\CCCCC)OC(=O)CCCCCCC/C=C\C/C=C\CCCCC [trilinolein] + CCCCC/C=C\C/C=C\CCCCCCCC(=O)O
kinematic viscosity (303.15 K, x2 = 0.7536): 2.55e-05 ± 8.4e-07 m2/s
kinematic viscosity (313.15 K, x2 = 0.7536): 1.85e-05 ± 6.2e-07 m2/s
kinematic viscosity (323.15 K, x2 = 0.7536): 1.31e-05 ± 4.4e-07 m2/s
kinematic viscosity (333.15 K, x2 = 0.7536): 9.96e-06 ± 3.3e-07 m2/s
kinematic viscosity (343.15 K, x2 = 0.7536): 7.98e-06 ± 2.6e-07 m2/s
kinematic viscosity (353.15 K, x2 = 0.7536): 6.83e-06 ± 2.2e-07 m2/s
kinematic viscosity (363.15 K, x2 = 0.7536): 5.69e-06 ± 1.9e-07 m2/s

CCCCC/C=C\C/C=C\CCCCCCCC(=O)O [(Z,Z)-9,12-octadecadienoic acid] + CCCCCCCC/C=C\CCCCCCCC(=O)OCC(COC(=O)CCCCCCC/C=C\CCCCCCCC)OC(=O)CCCCCCC/C=C\CCCCCCCC
kinematic viscosity (303.15 K, x1 = 0.7576): 2.96e-05 ± 9.8e-07 m2/s
kinematic viscosity (313.15 K, x1 = 0.7576): 2.13e-05 ± 7.1e-07 m2/s
kinematic viscosity (323.15 K, x1 = 0.7576): 1.59e-05 ± 5.3e-07 m2/s
kinematic viscosity (333.15 K, x1 = 0.7576): 1.23e-05 ± 4.1e-07 m2/s
kinematic viscosity (343.15 K, x1 = 0.7576): 9.76e-06 ± 3.2e-07 m2/s
kinematic viscosity (353.15 K, x1 = 0.7576): 7.91e-06 ± 2.6e-07 m2/s
kinematic viscosity (363.15 K, x1 = 0.7576): 6.52e-06 ± 2.2e-07 m2/s

CCCCCCCC(=O)OCC(COC(=O)CCCCCCC)OC(=O)CCCCCCC [1,2,3-propanetriol trioctanoate] + CCCCCCCCCC(=O)O
kinematic viscosity (303.15 K, x2 = 0.4763): 1.48e-05 ± 4.9e-07 m2/s
kinematic viscosity (303.15 K, x2 = 0.7423): 1.29e-05 ± 4.2e-07 m2/s
kinematic viscosity (303.15 K, x2 = 0.8902): 8.98e-06 ± 2.9e-07 m2/s
kinematic viscosity (313.15 K, x2 = 0.4763): 1.05e-05 ± 3.5e-07 m2/s
kinematic viscosity (313.15 K, x2 = 0.7423): 9.46e-06 ± 3.1e-07 m2/s
kinematic viscosity (313.15 K, x2 = 0.8902): 7.83e-06 ± 2.6e-07 m2/s
kinematic viscosity (323.15 K, x2 = 0.4763): 7.89e-06 ± 2.6e-07 m2/s
kinematic viscosity (323.15 K, x2 = 0.7423): 7.16e-06 ± 2.4e-07 m2/s
kinematic viscosity (323.15 K, x2 = 0.8902): 6.09e-06 ± 2e-07 m2/s
kinematic viscosity (333.15 K, x2 = 0.4763): 6.15e-06 ± 2e-07 m2/s
kinematic viscosity (333.15 K, x2 = 0.7423): 5.66e-06 ± 1.9e-07 m2/s
kinematic viscosity (333.15 K, x2 = 0.8902): 4.9e-06 ± 1.6e-07 m2/s
kinematic viscosity (343.15 K, x2 = 0.4763): 5.12e-06 ± 1.7e-07 m2/s
kinematic viscosity (343.15 K, x2 = 0.7423): 4.57e-06 ± 1.5e-07 m2/s
kinematic viscosity (343.15 K, x2 = 0.8902): 3.99e-06 ± 1.3e-07 m2/s
kinematic viscosity (353.15 K, x2 = 0.4763): 4.13e-06 ± 1.4e-07 m2/s
kinematic viscosity (353.15 K, x2 = 0.7423): 3.88e-06 ± 1.3e-07 m2/s
kinematic viscosity (353.15 K, x2 = 0.8902): 3.24e-06 ± 1.1e-07 m2/s
kinematic viscosity (363.15 K, x2 = 0.4763): 3.53e-06 ± 1.2e-07 m2/s
kinematic viscosity (363.15 K, x2 = 0.7423): 3.18e-06 ± 1.1e-07 m2/s
kinematic viscosity (363.15 K, x2 = 0.8902): 2.58e-06 ± 9e-08 m2/s

CCCCCCCC/C=C\CCCCCCCC(=O)O [(Z)-9-octadecenoic acid] + CCCCCCCCCC(=O)O
kinematic viscosity (303.15 K, x2 = 0.3533): 1.99e-05 ± 6.6e-07 m2/s
kinematic viscosity (303.15 K, x2 = 0.6211): 1.45e-05 ± 4.8e-07 m2/s
kinematic viscosity (313.15 K, x2 = 0.3533): 1.45e-05 ± 4.8e-07 m2/s
kinematic viscosity (313.15 K, x2 = 0.6211): 1.08e-05 ± 3.6e-07 m2/s
kinematic viscosity (323.15 K, x2 = 0.3533): 1.09e-05 ± 3.6e-07 m2/s
kinematic viscosity (323.15 K, x2 = 0.6211): 8.25e-06 ± 2.7e-07 m2/s
kinematic viscosity (333.15 K, x2 = 0.3533): 8.52e-06 ± 2.8e-07 m2/s
kinematic viscosity (333.15 K, x2 = 0.6211): 6.39e-06 ± 2.1e-07 m2/s
kinematic viscosity (343.15 K, x2 = 0.3533): 6.83e-06 ± 2.3e-07 m2/s
kinematic viscosity (343.15 K, x2 = 0.6211): 5.17e-06 ± 1.7e-07 m2/s
kinematic viscosity (353.15 K, x2 = 0.3533): 5.63e-06 ± 1.9e-07 m2/s
kinematic viscosity (353.15 K, x2 = 0.6211): 4.27e-06 ± 1.4e-07 m2/s
kinematic viscosity (363.15 K, x2 = 0.3533): 4.69e-06 ± 1.5e-07 m2/s
kinematic viscosity (363.15 K, x2 = 0.6211): 3.36e-06 ± 1.1e-07 m2/s

CCCCCCCC/C=C\CCCCCCCC(=O)O [(Z)-9-octadecenoic acid] + CCCCCCCC/C=C\CCCCCCCC(=O)OCC(COC(=O)CCCCCCC/C=C\CCCCCCCC)OC(=O)CCCCCCC/C=C\CCCCCCCC
kinematic viscosity (293.15 K, x1 = 0.758): 6.78e-05 ± 2.3e-06 m2/s
kinematic viscosity (303.15 K, x1 = 0.758): 4.49e-05 ± 1.5e-06 m2/s
kinematic viscosity (313.15 K, x1 = 0.758): 3.13e-05 ± 1e-06 m2/s
kinematic viscosity (323.15 K, x1 = 0.758): 2.28e-05 ± 7.6e-07 m2/s
kinematic viscosity (333.15 K, x1 = 0.758): 1.62e-05 ± 5.4e-07 m2/s
kinematic viscosity (343.15 K, x1 = 0.758): 1.26e-05 ± 4.2e-07 m2/s
kinematic viscosity (353.15 K, x1 = 0.758): 1e-05 ± 3.3e-07 m2/s
kinematic viscosity (363.15 K, x1 = 0.758): 8.22e-06 ± 2.7e-07 m2/s

CCCCC/C=C\C/C=C\CCCCCCCC(=O)OCC(COC(=O)CCCCCCC/C=C\C/C=C\CCCCC)OC(=O)CCCCCCC/C=C\C/C=C\CCCCC [trilinolein] + CCCCCCCC/C=C\CCCCCCCC(=O)O
kinematic viscosity (293.15 K, x2 = 0.7564): 4.14e-05 ± 1.4e-06 m2/s
kinematic viscosity (303.15 K, x2 = 0.7564): 2.82e-05 ± 9.4e-07 m2/s
kinematic viscosity (313.15 K, x2 = 0.7564): 2.07e-05 ± 6.9e-07 m2/s
kinematic viscosity (323.15 K, x2 = 0.7564): 1.48e-05 ± 4.9e-07 m2/s
kinematic viscosity (333.15 K, x2 = 0.7564): 1.15e-05 ± 3.8e-07 m2/s
kinematic viscosity (343.15 K, x2 = 0.7564): 9.32e-06 ± 3.1e-07 m2/s
kinematic viscosity (353.15 K, x2 = 0.7564): 7.62e-06 ± 2.5e-07 m2/s
kinematic viscosity (363.15 K, x2 = 0.7564): 6.38e-06 ± 2.1e-07 m2/s
